Results published in PubChem BioAssay AID192 (DTP/NCI, 2004).
Where “and” joins values, the source holds several entries; their conditions need not be identical. Equal values may be shown once. Toxic doses and inconclusive results are not listed. Rule for the calls: active = survival T/C of 150% or more; inactive = T/C below 125% in these data.

System: BDF1 mice, B16 melanoma ip, median survival T/C
Assay: NCI In Vivo Anticancer Drug Screen. Data for tumor model B16 Melanoma (intraperitoneal) in B6D2F1 (BDF1) mice
Conditions: endpoint: median survival time, higher = longer survival
In short: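 The ratio T/C compares compound-treated mice with vehicle-treated controls, using survival or tumor size as the endpoint in a transplantable tumor model.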

[1] = dose: 100.0 mg/kg/injection, schedule: Q04DX003 (ip), vehicle: Klucel (hydroxypropylcellulose) (HPC)
[2] = dose: 50.0 mg/kg/injection, schedule: Q01DX009 (ip), vehicle: saline with Tween-80
[3] = dose: 100.0 mg/kg/injection, schedule: Q01DX009 (ip), vehicle: saline with Tween-80
[4] = dose: 200.0 mg/kg/injection, schedule: Q01DX009 (ip), vehicle: saline with Tween-80
[5] = dose: 400.0 mg/kg/injection, schedule: Q01DX009 (ip), vehicle: saline with Tween-80
[6] = dose: 25.0 mg/kg/injection, schedule: Q01DX009 (ip), vehicle: Klucel (hydroxypropylcellulose) (HPC)
[7] = dose: 50.0 mg/kg/injection, schedule: Q01DX009 (ip), vehicle: Klucel (hydroxypropylcellulose) (HPC)
[8] = dose: 100.0 mg/kg/injection, schedule: Q01DX009 (ip), vehicle: Klucel (hydroxypropylcellulose) (HPC)
[9] = dose: 200.0 mg/kg/injection, schedule: Q01DX009 (ip), vehicle: Klucel (hydroxypropylcellulose) (HPC)
[10] = dose: 12.5 mg/kg/injection, schedule: Q01DX009 (ip), vehicle: Klucel (hydroxypropylcellulose) (HPC)
[11] = dose: 25.0 mg/kg/injection, schedule: Q04DX003 (ip), vehicle: Klucel (hydroxypropylcellulose) (HPC)
[12] = dose: 12.5 mg/kg/injection, schedule: Q01DX009 (ip), vehicle: saline
[13] = dose: 25.0 mg/kg/injection, schedule: Q01DX009 (ip), vehicle: saline
[14] = dose: 25.0 mg/kg/injection, schedule: Q01DX009 (ip), vehicle: saline with Tween-80
[15] = dose: 0.25 mg/kg/injection, schedule: Q01DX009 (ip), vehicle: saline
[16] = dose: 0.5 mg/kg/injection, schedule: Q01DX009 (ip), vehicle: saline
[17] = dose: 1.0 mg/kg/injection, schedule: Q01DX009 (ip), vehicle: saline
[18] = dose: 400.0 mg/kg/injection, schedule: Q01DX009 (ip), vehicle: Klucel (hydroxypropylcellulose) (HPC)
[19] = dose: 100.0 mg/kg/injection, schedule: Q01DX009 (ip), vehicle: saline

Measured: T/C

Cc1c(Cl)cccc1NC(=O)c1ccc(Cl)cc1Cl
inactive: [1] 95 % of control | dose: 200.0 mg/kg/injection, schedule: Q04DX003 (ip), vehicle: Klucel (hydroxypropylcellulose) (HPC) 102 % of control | dose: 400.0 mg/kg/injection, schedule: Q04DX003 (ip), vehicle: Klucel (hydroxypropylcellulose) (HPC) 100 % of control

CC(=O)Oc1c(Br)cc(Br)cc1-c1ccccc1
inactive: [2] 98 % of control | [3] 94 % of control | [4] 98 % of control | [5] 91 % of control

C=Cc1c2[n-]c(c1C)/C=c1\[n-]/c(c(C)c1C=C)=C\c1[n-]c(c(CCC(=O)O)c1C)/C=c1\[n-]/c(c(C)c1CCC(=O)O)=C\2.[Co]
inactive: [6] 95 % of control | [7] 94 % of control | [8] 92 % of control | [9] 87 % of control | dose: 1:1.0 dilution, schedule: Q01DX009 (ip), vehicle: saline 90 % of control | dose: 1:2.0 dilution, schedule: Q01DX009 (ip), vehicle: saline 99 % of control | dose: 1:4.0 dilution, schedule: Q01DX009 (ip), vehicle: saline 105 % of control | dose: 1:8.0 dilution, schedule: Q01DX009 (ip), vehicle: saline 112 % of control

Cc1cc(/C=C/c2cc[n+](C)c3ccccc23)c(O)c2ncccc12
inactive: dose: 3.0 mg/kg/injection, schedule: Q01DX009 (ip), vehicle: saline sonified 104 % of control | dose: 6.0 mg/kg/injection, schedule: Q01DX009 (ip), vehicle: saline sonified 97 % of control | dose: 12.0 mg/kg/injection, schedule: Q01DX009 (ip), vehicle: saline sonified 97 % of control | dose: 24.0 mg/kg/injection, schedule: Q01DX009 (ip), vehicle: saline sonified 100 % of control | dose: 48.0 mg/kg/injection, schedule: Q01DX009 (ip), vehicle: saline sonified 104 % of control

O=C(O)/C=C/C(=O)Nc1cccc(Oc2ccc([N+](=O)[O-])cc2[N+](=O)[O-])c1
inactive: dose: 150.0 mg/kg/injection, schedule: Q01DX009 (ip), vehicle: Klucel (hydroxypropylcellulose) (HPC) 90 % of control | dose: 300.0 mg/kg/injection, schedule: Q01DX009 (ip), vehicle: Klucel (hydroxypropylcellulose) (HPC) 107 % of control

CCC1CC2CC(c3cc4c(cc3OC)N(C)C3C(O)(C(=O)OC)C(OC(C)=O)C5(CC)C=CCN6CCC43C65)c3[nH]c4ccccc4c3CCN(C1)C2 (stereo not given)
inactive: dose: 0.25 mg/kg/injection, schedule: Q01DX009 (ip), vehicle: Klucel (hydroxypropylcellulose) (HPC) 108 % of control | dose: 0.5 mg/kg/injection, schedule: Q01DX009 (ip), vehicle: Klucel (hydroxypropylcellulose) (HPC) 94 % of control | dose: 1.0 mg/kg/injection, schedule: Q01DX009 (ip), vehicle: Klucel (hydroxypropylcellulose) (HPC) 104 % of control | dose: 2.0 mg/kg/injection, schedule: Q01DX009 (ip), vehicle: Klucel (hydroxypropylcellulose) (HPC) 111 % of control | dose: 4.0 mg/kg/injection, schedule: Q01DX009 (ip), vehicle: Klucel (hydroxypropylcellulose) (HPC) 108 % of control | dose: 8.0 mg/kg/injection, schedule: Q01DX009 (ip), vehicle: Klucel (hydroxypropylcellulose) (HPC) 104 % of control

ClCCCCCCCCCCCl
inactive: [10] 111 % of control | [6] 100 % of control | [11] 100 % of control | [7] 95 % of control | dose: 50.0 mg/kg/injection, schedule: Q04DX003 (ip), vehicle: Klucel (hydroxypropylcellulose) (HPC) 100 % of control | [1] 104 % of control

CN(C)CCN1C(=O)CC(c2ccccc2)Sc2ccccc21 (stereo not given)
inactive: dose: 3.12 mg/kg/injection, schedule: Q01DX009 (ip), vehicle: saline 115 % of control | dose: 6.25 mg/kg/injection, schedule: Q01DX009 (ip), vehicle: saline 112 % of control | [12] 107 % of control | [13] 97 % of control

CNC(=O)Nc1nccs1
inactive: [14] 97 % of control | [2] 95 % of control | [3] 106 % of control | [4] 91 % of control

CC(=O)/C=C(\C)OC1CCCCC1
inactive: [2] 113 % of control | [3] 104 % of control | [4] 92 % of control

CC(=O)C1=C(O)C2C3c4c[nH]c5cccc(c45)CC3C(C)(C)N2C1=O (stereo not given)
inactive: dose: 0.13 mg/kg/injection, schedule: Q01DX009 (ip), vehicle: saline 102 % of control | [15] 106 % of control | [16] 106 % of control | [17] 106 % of control | dose: 2.0 mg/kg/injection, schedule: Q01DX009 (ip), vehicle: saline 102 % of control | dose: 4.0 mg/kg/injection, schedule: Q01DX009 (ip), vehicle: saline 107 % of control | dose: 8.0 mg/kg/injection, schedule: Q01DX009 (ip), vehicle: saline 111 % of control

COc1ccc(N2CSC(=S)N(c3ccc(OC)cc3)C2)cc1
inactive: dose: 8.0 mg/kg/injection, schedule: Q01DX009 (ip), vehicle: saline with Tween-80 97 % of control | dose: 12.0 mg/kg/injection, schedule: Q01DX009 (ip), vehicle: saline with Tween-80 90 % of control | dose: 18.0 mg/kg/injection, schedule: Q01DX009 (ip), vehicle: saline with Tween-80 90 % of control | [6] 102 % of control | [14] 112 % of control | [7] 94 % of control | [2] 115 % of control | [8] 114 % of control

CC[CH2][Sn]([CH2]CC)([CH2]CC)[O][Sn]([CH2]CC)([CH2]CC)[CH2]CC
inactive: [15] 95 % of control | [16] 100 % of control | dose: 0.5 mg/kg/injection, schedule: Q04DX003 (ip), vehicle: saline 117 % of control | [17] 92 % of control | dose: 1.0 mg/kg/injection, schedule: Q04DX003 (ip), vehicle: saline 117 % of control

CC(=O)N(C(C)=O)c1ccc(N=Nc2ccccc2C)cc1C
inactive: [10] 94 % of control | [6] 117 % of control | [7] 100 % of control | [8] 100 % of control | [9] 87 % of control

O=C1c2ccccc2S(=O)(=O)c2ccc(Br)cc21
inactive: [8] 93 % of control | [9] 90 % of control | [18] 93 % of control

CCCCCCCCCCCCCCCCCCNC(=O)Nc1ccc(C(C)C)cc1
inactive: [11] 86 % of control | [1] 86 % of control and 89 % of control

O=[N+]([O-])c1cccc(P(=O)(c2cccc([N+](=O)[O-])c2)c2cccc([N+](=O)[O-])c2)c1
inactive: [19] 105 % of control | dose: 100.0 mg/kg/injection, schedule: Q04DX003 (ip), vehicle: saline 94 % of control | dose: 200.0 mg/kg/injection, schedule: Q01DX009 (ip), vehicle: saline 100 % of control | dose: 200.0 mg/kg/injection, schedule: Q04DX003 (ip), vehicle: saline 100 % of control | dose: 400.0 mg/kg/injection, schedule: Q01DX009 (ip), vehicle: saline 107 % of control | dose: 400.0 mg/kg/injection, schedule: Q04DX003 (ip), vehicle: saline 100 % of control

O=[N+]([O-])c1cc(F)cc([N+](=O)[O-])c1O
inactive: [10] 124 % of control | [6] 103 % of control | [7] 96 % of control

NCC1OC(OC2C(N)CC(N)C(O)C2OC2OC(CO)C(O)C2O)C(N)C(O)C1O (stereo not given)
inactive: [12] 93 % of control | [13] 100 % of control | dose: 50.0 mg/kg/injection, schedule: Q01DX009 (ip), vehicle: saline 93 % of control | [19] 96 % of control

O=C1c2ccccc2C(Cl)=C(Cl)C1(Cl)Cl
inactive: dose: 12.5 mg/kg/injection, schedule: Q04DX003 (ip), vehicle: Klucel (hydroxypropylcellulose) (HPC) 87 % of control | [11] 92 % of control

C/C=C(/C)N(C(C)=O)N(C(C)=O)c1ccc([N+](=O)[O-])cc1[N+](=O)[O-]
inactive: [8] 100 % of control | [9] 89 % of control | [18] 89 % of control

NNC(=O)c1cccc(C(=O)NN)c1
inactive: [3] 97 % of control | [4] 100 % of control | [5] 97 % of control

O=C1C(N2CCOCC2)=C(N2CC2)C(=O)C(N2CCOCC2)=C1N1CC1
inactive: dose: 0.75 mg/kg/injection, schedule: Q01DX009 (ip), vehicle: saline 118 % of control | dose: 1.5 mg/kg/injection, schedule: Q01DX009 (ip), vehicle: saline 124 % of control | dose: 3.0 mg/kg/injection, schedule: Q01DX009 (ip), vehicle: saline 120 % of control | dose: 6.0 mg/kg/injection, schedule: Q01DX009 (ip), vehicle: saline 106 % of control
